# How the values were obtained:
# Experiment in all cases: cells
# Design in all cases: species or system GBM PDCLs
# Conditions in all cases: 72 h, read-out: Erlotinib (IC50 µM)
# BT112 = system: BT112
# BT333 = system: BT333
# BT179 = system: BT179
compound,measurement,setting,value
C#Cc1cccc(Nc2ncnc3cc(OCCOC)c(OCCOC)cc23)c1 [erlotinib],IC50,BT112,18.5 µM
same,IC50,BT333,> 20 µM
same,IC50,BT179,11.7 µM

# Source: doi:10.1101/2021.01.09.426030v4 (biorxiv, 2022)
